Laboratory results as given in patent US9261498B2, “Biomarker for sensitivity to mTOR inhibitor therapy in kidney cancer” (The Regents of the University of California, priority 2005, dated 2016).
“Also recorded” adds a separate entry of the source.

System: SN12C-VHLshRNA-HIF-2α mutant xenograft tumors
Experiment: Subcutaneous xenograft tumor growth, VHL knockdown cells with HIF-2α mutant
Assay type: in vivo, SCID mice
Conditions: 0.1 mg/kg CCI-779 daily
Description: FIGS. 4A-4C. Rescue of CCI-779 growth suppression by HIF-1-α and HIF-2-α prolyl hydcroxylase mutants. SN12C-CSCG-VHLshRNA cells stably infected with the prolyl hydroxylation defective cDNA mutants p-Babe-puro-HA-HIF-1α (P564A), HIF-2α (P405A; P531A) or backbone vector were treated with CCI-779 or vehicle and harvested 24 hours later. (a) Lysates were subjected to immunoblotting for HIF-1α, HIF-2α, GLUT-1, CA-IX, p-eIF4G, p-S6 and β-Actin as loading control. (b) SN12C-VHLshRNA, SN12C-VHLshRNA-HIF-1α mutant, SN12C-VHLshRNA-HIF-2α mutant cells (1×10^5) were cultured in 10% serum rich media, in the presence of vehicle, 1 or 10 nM of CCI-779 for 5 days. Cell growth was measured by cell counts (n=3). […]
For in vitro experiments, cells (5×10^4) were plated and treated with 1 and 10 nM CCI-779 (kind gift of J. Gibbons, Wyeth) or vehicle (ethanol). On day 5-post treatment, cells were trypsinized, resuspended in DMEM with 10% FBS and counted using the VI CELL counter (Beckman Coulter), according to the manufacturer's instructions. […] In vivo tumorigenicity was measured by injection of 5×10^5 SN12C-CSCG, ACHN-CSCG, SN12C-CSCG-VHLshRNAi, ACHN-CSCG-VHLshRNAi, SN12C-CSCG-VHLshRNAi-pBABE, SN12C-CSCG-VHLshRNAi-pBABE-HA-HIF-2α (P405A; P531A) cells in 100 μl of Matrigel (Collaborative Biomedical) subcutaneously into the flanks of SCID mice. […]

`CO[C@H]1C[C@@H]2CC[C@@H](C)[C@@](O)(O2)C(=O)C(=O)N2CCCC[C@H]2C(=O)O[C@H]([C@H](C)C[C@@H]2CC[C@@H](OC(=O)C(C)(CO)CO)[C@H](OC)C2)CC(=O)[C@H](C)/C=C(\C)[C@@H](O)[C@@H](OC)C(=O)[C@H](C)C[C@H](C)/C=C/C=C/C=C/1C` [CCI-779] was tested, and the “growth inhibitory effect of CCI-779 in HIF mutant xenografts” value was “completely rescued; also recorded: reversal of both the in vitro and in vivo sensitivity”.
